From patent US8741806B2, “Herbicides” (Syngenta Limited, priority 2009, dated 2014)

What was measured:
Assay type in all cases: in vivo
[1] = test system: Alopecurus myosuroides (ALOMY); assay: Example B post-emergence herbicidal activity, glasshouse pot test; conditions: 312 h, rate 250 g/ha, evaluated after 13 days, scale 0-100, read-out: Post-emergence activity ALOMY (100=total damage to plant; 0=no damage to plant)
Method: (§1) Seeds of a variety of test species were sown in standard soil in pots. After cultivation for one day (pre-emergence) or after 8 days cultivation (post-emergence) under controlled conditions in a glasshouse (at 24/16° C., day/night; 14 hours light; 65% humidity), the plants were sprayed with an aqueous spray solution derived from the formulation of the technical active ingredient of formula I in acetone/water (50:50) solution containing 0.5% Tween 20 (polyoxyethelyene sorbitan monolaurate, CAS RN 9005-64-5). The test plants were then grown in a glasshouse under controlled conditions in a glasshouse (at 24/16° C., day/night; 14 hours light; 65% humidity) and watered twice daily. After 13 days for pre and post-emergence, the test was evaluated (100=total damage to plant; 0=no damage to plant). Setaria faberi (SETFA), Lolium perenne (LOLPE), Alopecurus myosuroides (ALOMY), Echinochloa crus-galli (ECHCG), and Avena fatua (AVEFA). Post-Emergence Activity

Avena fatua (AVEFA) [2] = assay: as above; conditions: 312 h, rate 250 g/ha, evaluated after 13 days, scale 0-100, read-out: Post-emergence activity AVEFA (100=total damage to plant; 0=no damage to plant)
Method: as §1

[3] = test system: Echinochloa crus-galli (ECHCG); assay: as above; conditions: 312 h, rate 250 g/ha, evaluated after 13 days, scale 0-100, read-out: Post-emergence activity ECHCG (100=total damage to plant; 0=no damage to plant)
Method: as §1

Lolium perenne (LOLPE) [4] = assay: as above; conditions: 312 h, rate 250 g/ha, evaluated after 13 days, scale 0-100, read-out: Post-emergence activity LOLPE (100=total damage to plant; 0=no damage to plant)
Method: as §1

[5] = test system: Alopecurus myosuroides (ALOMY); assay: Example B pre-emergence herbicidal activity, glasshouse pot test; conditions: 312 h, rate 250 g/ha, evaluated after 13 days, scale 0-100, read-out: Pre-emergence activity ALOMY (100=total damage to plant; 0=no damage to plant)
Method: as §1, with “Pre-Emergence” for “Post-Emergence”

Avena fatua (AVEFA) [6] = assay: as above; conditions: 312 h, rate 250 g/ha, evaluated after 13 days, scale 0-100, read-out: Pre-emergence activity AVEFA (100=total damage to plant; 0=no damage to plant)
Method: as §1, with “Pre-Emergence” for “Post-Emergence”

[7] = test system: Echinochloa crus-galli (ECHCG); assay: as above; conditions: 312 h, rate 250 g/ha, evaluated after 13 days, scale 0-100, read-out: Pre-emergence activity ECHCG (100=total damage to plant; 0=no damage to plant)
Method: as §1, with “Pre-Emergence” for “Post-Emergence”

Lolium perenne (LOLPE) [8] = assay: as above; conditions: 312 h, rate 250 g/ha, evaluated after 13 days, scale 0-100, read-out: Pre-emergence activity LOLPE (100=total damage to plant; 0=no damage to plant)
Method: as §1, with “Pre-Emergence” for “Post-Emergence”

SMILES	pest or weed control at 250 g/ha [1]	pest or weed control at 250 g/ha (Avena fatua (AVEFA) [2])	pest or weed control at 250 g/ha [3]	pest or weed control at 250 g/ha (Lolium perenne (LOLPE) [4])	pest or weed control at 250 g/ha [5]	pest or weed control at 250 g/ha (Avena fatua (AVEFA) [6])	pest or weed control at 250 g/ha [7]	pest or weed control at 250 g/ha (Lolium perenne (LOLPE) [8])
CCc1ccc(-c2ccc(Cl)c(F)c2)cc1C1=C(O)CCCC1=O [Compound T56]	60%	100%	100%	100%	30%	20%	100%	90%
CCc1ccc(-c2ccc(Cl)nc2Cl)cc1C1=C(O)CCCC1=O [Compound T57]	50%	40%	80%	60%	0%	0%	20%	10%
CCc1ccc(-c2c(F)cc(Cl)cc2F)cc1C1=C(O)CCCC1=O [Compound T58]	60%	90%	100%	90%	20%	0%	90%	70%
CCc1ccc(-c2ccc(C(F)(F)F)cc2)cc1C1=C(O)CCCC1=O [Compound T59]	100%	100%	100%	100%	100%	100%	100%	100%
CCc1ccc(-c2ccc(Cl)cc2F)cc1C1=C(O)C(C)(C)CC(C)(C)C1=O [Compound T60]	10%	30%	100%	80%	0%	30%	90%	80%
CCc1ccc(-c2ccc(Cl)cc2Cl)cc1C1=C(O)C(C)(C)CC(C)(C)C1=O [Compound T61]	10%	30%	90%	40%	20%	50%	90%	70%
CCc1ccc(-c2ccc(Cl)c(F)c2F)cc1C1=C(O)C(C)(C)CC(C)(C)C1=O [Compound T62]	60%	80%	80%	80%	60%	50%	90%	90%
CCc1ccc(-c2ccc(Cl)c(F)c2Cl)cc1C1C(=O)C(C)(C)CC(C)(C)C1=O [Compound T63]	20%	40%	80%	80%	20%	50%	90%	90%
CCc1ccc(-c2ccc(Cl)c(F)c2)cc1C1=C(O)C(C)(C)CC(C)(C)C1=O [Compound T64]	50%	80%	100%	80%	30%	10%	70%	60%
CCc1ccc(-c2ccc(Cl)c(C(F)(F)F)c2)cc1C1=C(O)C(C)(C)CC(C)(C)C1=O [Compound T65]	20%	30%	80%	50%	10%	20%	90%	50%
CCc1ccc(-c2ccc(Cl)c(OC)c2)cc1C1=C(O)C(C)(C)CC(C)(C)C1=O [Compound T66]	30%	50%	100%	30%	10%	0%	90%	30%
CCc1ccc(-c2ccc(Cl)c(Cl)c2)cc1C1=C(O)C(C)(C)CC(C)(C)C1=O [Compound T67]	20%	20%	80%	40%	10%	0%	60%	10%
CCc1ccc(-c2ccc(Cl)cc2)cc1C1=C(O)C(C)(C)CC(C)(C)C1=O [Compound T69]	20%	40%	100%	100%	10%	0%	90%	90%
